Measured values taken from patent US11440923B2, “Substituted macrocyclic indole derivatives” (Bayer Aktiengesellschaft, priority 2017, dated 2022).
Counter-ions that a name gives are not always drawn. Like-named read-outs stand apart in the source and are kept apart here.

Key:
Type in all cases: cell-based
SUDHL10 cells = assay: Induction of cytotoxicity in SUDHL10 cells (Assay 6); details: 5 h, CellTiter-Glo, read-out: Cytotox SUDHL10 IC50 (median)
In short: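 Cells plated overnight at 37 °C, then exposed to compound for 5 h in a humidified incubator at 37 °C. Viability read by CellTiter-Glo luminescence after 15 min shaking at room temperature; cell-free medium served as control.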

AMO-1 cells = assay: Antiproliferation assay AMO-1 (Assay 7)
In short: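 IC50 values reflect growth relative to a day 0 baseline (CI) and DMSO vehicle (C0). Viable cells were quantified by CellTiter-Glo luminescence after 72 h treatment at 37 °C.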

[1] = molecular target: MCL1 protein / biotinylated BIM BH3 peptide in RKO cells (Homo sapiens (Human), UniProt Q07820); assay: PIxEL: protein-protein interaction in permeabilized cells by ELISA (Assay 5); details: PIxEL IC50 (median)
In short: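 Digitonin (0.002%)-permeabilized RKO cells in MEB buffer pH 7.5 were treated with compound (3-fold series, top 30 μM) plus 0.2 μM biotin-BIM BH3 peptide for 1 h at room temperature. Lysates were captured on anti-MCL1 ELISA plates and bound peptide read by streptavidin-HRP luminescence. IC50 came from signal normalized to no-compound and no-cell controls.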

[2] = Homo sapiens, AMO1, 72 h, 72 h, CellTiter-Glo; read-out: Antiproli AMO-1 IC50 median

MCL1 protein / biotinylated BIM BH3 peptide in RKO cells, sequence (Q07820 whole entry): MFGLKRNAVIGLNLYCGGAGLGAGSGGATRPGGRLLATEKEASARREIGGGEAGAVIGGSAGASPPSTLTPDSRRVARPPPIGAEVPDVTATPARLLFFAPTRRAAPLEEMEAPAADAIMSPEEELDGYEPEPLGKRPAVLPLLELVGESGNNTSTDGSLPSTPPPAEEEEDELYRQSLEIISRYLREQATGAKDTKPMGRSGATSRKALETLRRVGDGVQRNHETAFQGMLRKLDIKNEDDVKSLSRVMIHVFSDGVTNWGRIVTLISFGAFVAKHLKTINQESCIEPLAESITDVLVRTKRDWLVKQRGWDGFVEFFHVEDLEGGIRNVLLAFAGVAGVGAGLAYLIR

Q: With `CCc1c2c(nn1C)C1CCCCN1CCCCn1c(C(=O)O)c(CCCOc3cccc4ccccc34)c3ccc(Cl)c-2c31` (racemic) [Example 102, (rac)-18-chloro-1-ethyl-2-methyl-15-[3-(1-naphthyloxy)propyl]-2,3b,4,5,6,7,9,10,11,12-decahydropyrazolo[3′,4′:8,9]pyrido[1′,2′:6,7][1,6]diazacycloundecino[10,11,1-hi]indole-14-carboxylic Acid] as the compound, how does the IC50 (SUDHL10 cells; Homo sapiens, SU-DHL10, 5 h) read?
A: 950 nM

Q: What about the IC50 (AMO-1 cells; [2]) of the same compound?
A: 522 nM

Q: And the IC50 [1]?
A: 59.9 nM

Q: `CCC1OCCCCn2c(C(=O)O)c(CCCOc3cccc4ccccc34)c3ccc(Cl)c(c32)-c2c1nn(C)c2C` (single isomer, unassigned; enantiomer 1) [Example 29, (+)-4-chloro-15-ethyl-2,3-dimethyl-7-{3-[(naphthalen-1-yl)oxy]propyl}-2,10,11,12,13,15-hexahydropyrazolo[4′,3′:9,10][1,6]oxazacycloundecino[8,7,6-hi]indole-8-carboxylic Acid—N-ethylethanamine Salt (Enantiomer 1)] was tested. Which IC50 (SUDHL10 cells) did it give?
A: 3900 nM

Q: And the IC50 (AMO-1 cells; read-out: Antiproli AMO-1 IC50 median; 72 h, CellTiter-Glo)?
A: 4350 nM

Q: What about the IC50 [1] of the same compound?
A: 1060 nM

Q: What does the source list for `Cc1c2c(nn1C)C(CCN1CCOCC1)OCCCCn1c(C(=O)O)c(CCCOc3cccc4cc(F)ccc34)c3ccc(Cl)c-2c31` (single isomer, unassigned; enantiomer 2) [Example 18, 4-chloro-7-{3-[(6-fluoronaphthalen-1-yl)oxy]propyl}-2,3-dimethyl-15-[2-(morpholin-4-yl)ethyl]-2,10,11,12,13,15-hexahydropyrazolo[4′,3′:9,10][1,6]oxazacycloundecino[8,7,6-hi]indole-8-carboxylic Acid (Enantiomer 2)]?
A: IC50 (SUDHL10 cells; Homo sapiens, SU-DHL10, 5 h): 770 nM; IC50 (AMO-1 cells; [2]): 2370 nM; IC50 [1]: 2430 nM

Q: Which IC50 (SUDHL10 cells) does the source give for `CCc1c2c(nn1C)C(CCN1CC(F)(F)C1)OCCCCn1c(C(=O)O)c(CCCOc3cccc4cc(F)ccc34)c3ccc(Cl)c-2c31` (single isomer, unassigned; (+)) [Example 78, (+)-4-chloro-15-[2-(3,3-difluoroazetidin-1-yl)ethyl]-3-ethyl-7-{3-[(6-fluoronaphthalen-1-yl)oxy]propyl}-2-methyl-2,10,11,12,13,15-hexahydropyrazolo[4′,3′:9,10][1,6]oxazacycloundecino[8,7,6-hi]indole-8-carboxylic Acid—N-ethylethanamine Salt] here?
A: 12 nM

Q: And the IC50 (AMO-1 cells; 72 h, CellTiter-Glo; read-out: Antiproli AMO-1 IC50 median)?
A: 11.2 nM

Q: What about the IC50 [1] of the same compound?
A: 43.4 nM
